{"source": "patent US8257734B2", "about": "“PQS and its conjugates as adjuvants and their uses in pharmaceutical compositions” (Helmhotlz-Zentrum Fuer Infektions-Forschung GmbH, priority 2005, dated 2012)", "key": {"β-gal-specific IgG": {"test_system": "β-gal-specific IgG", "assay": "β-gal-specific serum IgG ELISA after immunization with β-gal plus adjuvant", "assay_type": "in vivo, BALB/c (H-2d) mice", "settings": "30 μg β-gal + 10 μg adjuvant, vs β-gal alone", "experimental": "Experimental protocol: six-eight weeks-old female BALB/c (H-2d) mice were purchased from Harlan Winkelmann GmbH (Borchen, Germany) and treated in accordance with local and European Community guidelines. Groups of 5 mice each were immunized on day 1, 14 and 28 with 30 μg of β-gal (Boehringer, Mannheim, Germany), alone or as an admixture with 10 μg PQS-PEG or with 10 μg PQS (structure of said compounds are shown in FIG. 1). For intranasal (i.n.) immunization, 10 μl were applied to each naris, whereas for the s.c. injection β-gal with or without c-PQS-PEG or PQS, respectively, was resuspended in a volume of 20 μl PBS per animal. Serum samples were collected at day 38 after immunization and stored at −20° C. prior to determination of β-gal-specific antibodies. 96-well Nunc-Immuno MaxiSorp assay plates (Nunc, Roskilde, Denmark) were coated with 100 μl of β-gal (Boehringer, Mannheim, Germany) at 5 μg/ml in 0.05 M carbonate buffer (pH 8.2) per well. Serial two-fold dilutions of sera in PBS with 1% BSA and 0.05% Tween 20 were added (100 μl/well), and plates incubated for 16 h at 37° C. After washing, biotinylated γ-chain-specific goat anti-mouse IgG (Sigma Chemie, Deisenhofen, Germany) was added, and plates were incubated for an additional 1 h at 37° C. After four washes, 100 μl of peroxidase-conjugated streptavidin (Pharmingen) was added to cells and plates incubated at 37° C. for 30 min."}, "β-gal-specific IgA": {"test_system": "β-gal-specific IgA", "assay": "β-gal-specific IgA in lung and vaginal lavages after i.n. immunization", "assay_type": "in vivo, BALB/c (H-2d) mice", "settings": "day 38, vs β-gal alone", "experimental": "Experimental protocol: at day 38, mice were sacrificed and the final sampling was performed. Vaginal and lung lavages were obtained by flushing the organs with 1 ml of PBS supplemented with 50 mM EDTA, 0.1% BSA, and 10 mM PMSF. Lavages were then centrifuged to remove debris (10 min at 3000×g), and supernatant fluids were stored at −20° C. To determine the concentration of total IgA present in the lung and vaginal lavages, serial dilutions of the corresponding samples were incubated in microtiter plates that were previously coated with goat anti-mouse IgA (Sigma Chemie), as capture antibodies (100 μl/well). Serial dilutions of purified mouse IgA (Sigma Chemie) were used to generate a standard curve."}, "spleen cells": {"test_system": "spleen cells", "assay": "[3H]thymidine proliferation of spleen cells from vaccinated mice restimulated in vitro with β-gal", "assay_type": "in vivo, BALB/c (H-2d) mice", "settings": "day 38, vs β-gal alone", "experimental": "Experimental protocol: Spleens were removed and pooled for analysis of cellular immune responses. […] Spleen cell suspensions were adjusted to 5×10^6 cells/ml in complete medium, cells were seeded with 100 μl per well in a flat-bottomed 96-well microtiter plate (Nunc) and plates were incubated for 4 days in the presence of different concentrations of soluble β-gal. That is, T cell mediated immune responses were investigated at day 38 by measuring the proliferation after in vitro restimulation with β-Gal of cells which have been recovered from spleens before. […] Each concentration was tested in quadruplicate. During the final 18 h of culture, 1 μCi of [3H]thymidine (Amersham International, Freiburg, Germany) was added to each well. […] The results are expressed as the arithmetic mean of [^3H]thymidine uptake in cpm.\nThirty eight days following vaccination, spleens cells were purified, re-stimulated in vitro in the presence of various amounts of β-galactosidase and their proliferative capacity was estimated by measuring the incorporation of [3H]thymidine into their DNA using a β-scintillation counter."}, "[1]": {"test_system": "β-gal antigen-specific IgG1", "assay": "Isotyp ELISA of β-gal-specific IgG subclasses in sera of vaccinated mice", "assay_type": "in vivo", "experimental": "Isotyp ELISA: 96-well Nunc-Immuno MaxiSorp assay plates (Nunc, Roskilde, Denmark) were coated with 100 μl of β-gal (Boehringer, Mannheim, Germany) at 5 μg/ml in 0.05 M carbonate buffer (pH 9.6) per well. Serial two-fold dilutions of sera or lavages in PBS with 1% BSA and 0.05% Tween 20 were added (100 μl/well), and plates incubated for 2 h at 37° C. After washing, biotin-conjugated rat anti-mouse IgG1 or IgG2a (Pharmingen, Hamburg, Germany) were added to determine IgG subclasses. Plates were incubated for an additional 1 h at 37° C. After four washes, 100 μl of peroxidase-conjugated streptavidin (Pharmingen) was added to cells and plates incubated at 37° C. for 30 min. […] To determine the concentration of IgG subclasses in serum, standard curves were obtained by coating the wells with an isotype-specific goat anti-mouse IgG, and then by incubating with purified mouse IgG1 or IgG2 antibodies (Dianova, Hamburg, Germany)."}, "[2]": {"test_system": "IFN-γ, IL-2, IL-4, IL-5, and TNFα", "assay": "Cytometric Bead Array of cytokines in supernatants of in vitro re-stimulated spleen cells", "assay_type": "in vivo, mice", "settings": "vs β-Gal without additional adjuvant", "experimental": "Experimental protocol: Spleens from vaccinated mice were removed and pooled for analysis of cellular immune responses. The protocol for vaccination was identical to the protocol described in Example 2. Cells were grown in RPMI 1640 supplemented with 10% fetal calf serum, 100 U/ml of penicillin, 50 μg/ml of streptomycin, 5×10^−5 M 2-mercaptoethanol and 1 mM L-glutamine (GIBCO BRL, Karlsruhe, Germany) and maintained at 37° C. in a humidified 5% CO2 atmosphere. Spleen cell suspensions were adjusted to 5×10^6 cells/ml in complete medium, cells were seeded with 100 μl per well in a flat-bottomed 96-well microtiter plate (Nunc) and plates were incubated for 4 days in the presence of different concentrations of soluble β-gal.\nTo characterize the type of Th response stimulated following immunization, the content of IFN-γ, IL-2, IL-4, IL-5, and TNFα was measured in supernatants from in vitro re-stimulated spleen cells (FIG. 6A for s.c. immunization and FIG. 6B for i.n. immunization) by the Cytometric Bead Array. Culture supernatants from proliferating cells were collected on days 2 and 4, and stored at −70° C. […] The probes were analyzed subsequently by flow cytometry as described in the protocol of BD."}, "[3]": {"test_system": "splenic IFNγ, IL-2 and IL-4 producing cells", "assay": "ELISPOT of cytokine producing spleen cells from vaccinated mice", "assay_type": "in vivo", "settings": "for splenic IL-2 producing cells / splenic IL-4 producing cells: restimulation with β-Gal protein", "experimental": "Experimental protocol: Spleens from vaccinated mice were removed and pooled for analysis of cellular immune responses. […] Spleen cell suspensions were adjusted to 5×10^6 cells/ml in complete medium, cells were seeded with 100 μl per well in a flat-bottomed 96-well microtiter plate (Nunc) and plates were incubated for 4 days in the presence of different concentrations of soluble β-gal.\nFor coating ELISPOT plates, said plates were incubated with 100 μl/well of purified capture antibody (10 μg/ml in coating buffer) at 4° C. overnight. […] The activated cells were seeded at 100 μl per well and incubate at 37° C., in a 5% CO2 humidified incubator for 24 hours or 48 h hours. After 5× washing steps with washing buffer and 1× step with distilled water, 100 μl/well of the biotinylated detection antibody with a concentration of 1 μg/ml in Assay Diluent was added and incubated at room temperature for 2 hrs. After further washing steps 100 μl/well of the AV-HRP at 1/1000 dilution in Assay Diluent was added and incubated at room temperature for 30 minutes. After further washing steps 100 μl/well of AEC Substrate Solution was added and developed at room temperature for 10-60 minutes until visible spots appeared. After washing steps with (3×) with 200 μl/well distilled water, the plates were air-dried and analyzed by counting the spots by an ELISPOT reader. Each concentration was tested in triplicates."}, "P815 target cells": {"test_system": "P815 target cells", "assay": "Cr51 release cytotoxicity assay with effector cells of immunized mice", "assay_type": "in vivo", "settings": "mice immunized with β-gal/PQS subcutaneously; FIG. 8A; vs non-immunized mice", "experimental": "This system is based on the measurement of the Cr51 release of target cells due to specific lysis. In particular, with the amount of radioactivity detectable in the supernatant, the specific lysis can be calculated.\nPrior the Cytotoxicity Assay, P815 target cells were split and resuspended and adjusted to 2×10E6 cells/300 μl DMEM. The P815 cells were incubated with an MHC class I β-gal specific peptide for 1.5 h, while slightly agitating the cells every 15 min to improve binding between the peptide and the MHC class I molecule. After washing the cells, cells were resuspended in 150 μl medium without FCS and cultured for 2 h in the presence of 100 μci 51Chrom. Every 30 min, the cell suspension was agitated slightly. Subsequently, cells were washed twice in DMEM plus 10% FCS to remove unbound 51Cr. The cells were adjusted to […]. The effector cells were diluted serially (1×10E6, 0.5×10E6, 0.25×10E6, and 0.125×10E6). 50 μl of the murine target cells (10000 cells) were added to the effector cells, thus, the ratio of effector cells/target cells is 100:1, 50:1, 25:1, and 12.5:1, respectively. […] 25 or 30 μl, supernatant was taken from each of the wells and radioactivity according to standard practice determined. The specific lysis was calculated taking spontaneous lysis and maximal lysis into account."}, "[4]": {"test_system": "spleenocytes stimulated with ConA", "settings": "cited from earlier work"}, "[5]": {"test_system": "human peripheral blood mononuclear cells", "settings": "stimulated with the lectin ConA; cited from earlier work"}, "IL-2": {"test_system": "IL-2", "settings": "cited from earlier work"}, "TNF-alpha": {"test_system": "TNF-alpha", "settings": "cited from earlier work"}}, "note": "Entries after “also recorded” stand apart in the source; their conditions may differ."}
{"smiles": "CCCCCCCC1=Nc2ccccc2C(=O)C1O", "note": "(centres unmarked) [PQS, 2-heptyl-3-hydroxy-4-quinolone]", "values": [{"measurement": "β-gal specific IgG titer in sera", "setting": "β-gal-specific IgG; i.n. immunization day 1, 14, 28, sera day 38", "value": "increased expression; also recorded: remarkably increased"}, {"measurement": "β-gal specific IgG titer in sera", "setting": "β-gal-specific IgG; s.c. (parenteral) immunization day 1, 14, 28", "value": "remarkably increased"}, {"measurement": "β-gal-specific IgA in lung lavage", "setting": "β-gal-specific IgA", "value": "slight increase"}, {"measurement": "β-gal-specific IgA in vaginal lavage", "setting": "β-gal-specific IgA", "value": "slight increase"}, {"measurement": "spleen cell proliferation ([3H]thymidine uptake) after β-gal restimulation", "setting": "spleen cells; i.n. immunization", "value": "efficient adjuvant; also recorded: efficient proliferative response at low amounts of antigen; also recorded: statistically significant increment"}, {"measurement": "spleen cell proliferation ([3H]thymidine uptake) after β-gal restimulation", "setting": "spleen cells; s.c. immunization", "value": "efficient adjuvant; also recorded: further increase in proliferation; also recorded: statistically significant increment"}, {"measurement": "antigen-specific antibody response", "setting": "[1]; i.n. immunization", "value": "strong antigen-specific antibody response"}, {"measurement": "antigen specific antibodies of the IgG1 subtype in sera", "setting": "[1]; intranasal administration, FIG. 5B", "value": "strongly increased"}, {"measurement": "expression of the IgG1 isotype in sera", "setting": "[1]; subcutaneous administration, FIG. 5A", "value": "strongly increased"}, {"measurement": "levels of IL-5", "setting": "[2]; i.n. route", "value": "significantly higher"}, {"measurement": "levels of IL-5", "setting": "[2]; s.c. route", "value": "significantly higher"}, {"measurement": "splenic IL-2 producing cells", "setting": "[3]; i.n. route", "value": "strong expression"}, {"measurement": "splenic IL-4 producing cells", "setting": "[3]; i.n. route", "value": "strong expression"}, {"measurement": "amounts of IFNγ expressing cells", "setting": "[3]; i.n. vaccination, compared with s.c. vaccination", "value": "lower to the level determined after s.c. vaccination"}, {"measurement": "expression of Th1 and Th2 cytokines after restimulation of spleen cells", "setting": "[3]; intranasal immunization (FIG. 7B)", "value": "increased expression"}, {"measurement": "number of splenic IFNγ producing cells", "setting": "[3]; parenteral (s.c.) vaccination, restimulation with MHC class I-restricted β-Gal peptide (CD8 epitope), FIG. 7A", "value": "increment"}, {"measurement": "splenic IL-2 producing cells", "setting": "[3]; s.c. route", "value": "strong expression"}, {"measurement": "splenic IL-4 producing cells", "setting": "[3]; s.c. route", "value": "strong expression"}, {"measurement": "expression of Th1 and Th2 cytokines after restimulation of spleen cells", "setting": "[3]; subcutaneous immunization (FIG. 7A)", "value": "increased expression"}, {"measurement": "specific lysis of peptide-pulsed target cells by β-gal restimulated CD8+ T-cells", "setting": "P815 target cells", "value": "demonstrates the cytotoxic capacity"}, {"measurement": "proliferation of spleenocytes", "setting": "[4]", "value": "inhibiting activity"}, {"measurement": "proliferation of human peripheral blood mononuclear cells", "setting": "[5]", "value": "proliferation inhibiting activity"}, {"measurement": "IL-2 release from PMCs", "setting": "IL-2; at low doses, stimulated with ConA", "value": "no effect"}, {"measurement": "IL-2 secretion", "setting": "IL-2", "value": "inhibited"}, {"measurement": "TNF-alpha production", "setting": "TNF-alpha; at high concentrations", "value": "enhances"}, {"measurement": "TNF-alpha release from PMCs", "setting": "TNF-alpha; at low doses, stimulated with LPS", "value": "no effect"}]}
